Data as given in patent US20230416248A1, “COMPOUNDS AND USES THEREOF” (Foghorn Therapeutics Inc., priority 2020, published 2023).
Like-named read-outs stand apart in the source and are kept apart here.

How the values were obtained:
BRG-1 = target: T1, BRG-1 (Homo sapiens, UniProt P51532); experiment: ATPase catalytic activity of BRG-1, ADP-Glo in vitro biochemical assay; conditions: 30 nM BRG-1, 400 μM ATP, read-out: BRG1 IC50
T1 construct: made in house; host or cells: High Five insect cells
How it was run: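 BRG-1 ATPase activity was measured by ADP-Glo. Unconsumed ATP was depleted for 40 min at room temperature, then ADP was converted to ATP for 60 min and read as luminescence.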

BRM = target: T2, BRM (Homo sapiens, UniProt P51531); experiment: ATPase catalytic activity of BRM, ADP-Glo in vitro biochemical assay; conditions: for IC50: 30 nM BRM, 400 μM ATP; for Ratio* (BRG1 IC50 (μM) divided by BRM IC50 (μM)): selectivity ratio BRG1 IC50 / BRM IC50
T2 construct: made in house; host or cells: High Five insect cells
T2 sequence (P51531 whole entry): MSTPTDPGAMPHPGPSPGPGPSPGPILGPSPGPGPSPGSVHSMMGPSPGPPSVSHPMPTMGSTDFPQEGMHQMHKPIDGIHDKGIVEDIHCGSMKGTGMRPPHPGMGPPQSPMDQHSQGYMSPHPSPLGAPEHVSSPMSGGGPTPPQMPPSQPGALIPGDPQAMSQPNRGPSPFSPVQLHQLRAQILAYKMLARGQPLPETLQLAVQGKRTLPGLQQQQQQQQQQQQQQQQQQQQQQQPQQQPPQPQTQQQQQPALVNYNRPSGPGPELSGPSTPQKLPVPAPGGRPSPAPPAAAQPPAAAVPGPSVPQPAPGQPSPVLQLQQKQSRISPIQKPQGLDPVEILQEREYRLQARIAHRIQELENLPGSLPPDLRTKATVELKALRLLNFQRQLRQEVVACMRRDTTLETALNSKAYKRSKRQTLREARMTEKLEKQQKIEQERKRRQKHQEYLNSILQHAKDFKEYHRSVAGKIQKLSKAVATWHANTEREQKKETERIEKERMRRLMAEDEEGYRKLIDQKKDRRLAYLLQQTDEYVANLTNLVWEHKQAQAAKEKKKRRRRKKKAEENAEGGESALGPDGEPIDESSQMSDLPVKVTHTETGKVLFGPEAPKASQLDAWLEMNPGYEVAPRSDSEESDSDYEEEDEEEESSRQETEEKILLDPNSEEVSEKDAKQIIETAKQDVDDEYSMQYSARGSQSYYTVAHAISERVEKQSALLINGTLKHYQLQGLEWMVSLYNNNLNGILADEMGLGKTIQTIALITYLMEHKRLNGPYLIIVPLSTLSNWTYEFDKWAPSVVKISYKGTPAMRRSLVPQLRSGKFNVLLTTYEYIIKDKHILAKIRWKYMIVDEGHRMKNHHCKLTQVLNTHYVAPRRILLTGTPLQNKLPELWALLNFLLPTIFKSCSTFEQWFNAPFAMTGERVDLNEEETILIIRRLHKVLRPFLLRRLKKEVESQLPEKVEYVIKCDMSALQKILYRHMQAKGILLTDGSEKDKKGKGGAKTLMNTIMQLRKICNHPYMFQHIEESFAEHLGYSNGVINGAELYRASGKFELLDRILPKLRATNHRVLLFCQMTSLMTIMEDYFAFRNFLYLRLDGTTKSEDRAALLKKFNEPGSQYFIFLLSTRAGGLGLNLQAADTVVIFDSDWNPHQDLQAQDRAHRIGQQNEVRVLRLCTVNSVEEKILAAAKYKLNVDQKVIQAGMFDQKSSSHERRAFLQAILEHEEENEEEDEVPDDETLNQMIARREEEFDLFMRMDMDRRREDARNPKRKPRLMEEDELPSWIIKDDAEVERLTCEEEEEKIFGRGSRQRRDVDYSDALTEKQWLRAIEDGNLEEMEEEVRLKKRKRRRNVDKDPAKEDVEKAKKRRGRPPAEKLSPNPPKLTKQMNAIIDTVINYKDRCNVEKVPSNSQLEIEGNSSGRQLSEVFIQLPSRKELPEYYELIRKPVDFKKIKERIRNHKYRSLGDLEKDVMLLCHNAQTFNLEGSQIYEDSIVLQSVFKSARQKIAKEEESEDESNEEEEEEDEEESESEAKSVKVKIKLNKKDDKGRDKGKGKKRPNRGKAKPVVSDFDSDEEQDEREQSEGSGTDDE
How it was run: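 Recombinant BRM (30 nM) hydrolysed 400 μM ATP with 20 nM salmon sperm DNA in pH 8 Tris buffer containing 20 mM MgCl2, 50 mM NaCl, 0.1% Tween-20 and 1 mM DTT, 1 h at room temperature. ADP formed was quantified by ADP-Glo luminescence.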

[1] = ATPase catalytic activity, ADP-Glo

T1 sequence (P51532 whole entry): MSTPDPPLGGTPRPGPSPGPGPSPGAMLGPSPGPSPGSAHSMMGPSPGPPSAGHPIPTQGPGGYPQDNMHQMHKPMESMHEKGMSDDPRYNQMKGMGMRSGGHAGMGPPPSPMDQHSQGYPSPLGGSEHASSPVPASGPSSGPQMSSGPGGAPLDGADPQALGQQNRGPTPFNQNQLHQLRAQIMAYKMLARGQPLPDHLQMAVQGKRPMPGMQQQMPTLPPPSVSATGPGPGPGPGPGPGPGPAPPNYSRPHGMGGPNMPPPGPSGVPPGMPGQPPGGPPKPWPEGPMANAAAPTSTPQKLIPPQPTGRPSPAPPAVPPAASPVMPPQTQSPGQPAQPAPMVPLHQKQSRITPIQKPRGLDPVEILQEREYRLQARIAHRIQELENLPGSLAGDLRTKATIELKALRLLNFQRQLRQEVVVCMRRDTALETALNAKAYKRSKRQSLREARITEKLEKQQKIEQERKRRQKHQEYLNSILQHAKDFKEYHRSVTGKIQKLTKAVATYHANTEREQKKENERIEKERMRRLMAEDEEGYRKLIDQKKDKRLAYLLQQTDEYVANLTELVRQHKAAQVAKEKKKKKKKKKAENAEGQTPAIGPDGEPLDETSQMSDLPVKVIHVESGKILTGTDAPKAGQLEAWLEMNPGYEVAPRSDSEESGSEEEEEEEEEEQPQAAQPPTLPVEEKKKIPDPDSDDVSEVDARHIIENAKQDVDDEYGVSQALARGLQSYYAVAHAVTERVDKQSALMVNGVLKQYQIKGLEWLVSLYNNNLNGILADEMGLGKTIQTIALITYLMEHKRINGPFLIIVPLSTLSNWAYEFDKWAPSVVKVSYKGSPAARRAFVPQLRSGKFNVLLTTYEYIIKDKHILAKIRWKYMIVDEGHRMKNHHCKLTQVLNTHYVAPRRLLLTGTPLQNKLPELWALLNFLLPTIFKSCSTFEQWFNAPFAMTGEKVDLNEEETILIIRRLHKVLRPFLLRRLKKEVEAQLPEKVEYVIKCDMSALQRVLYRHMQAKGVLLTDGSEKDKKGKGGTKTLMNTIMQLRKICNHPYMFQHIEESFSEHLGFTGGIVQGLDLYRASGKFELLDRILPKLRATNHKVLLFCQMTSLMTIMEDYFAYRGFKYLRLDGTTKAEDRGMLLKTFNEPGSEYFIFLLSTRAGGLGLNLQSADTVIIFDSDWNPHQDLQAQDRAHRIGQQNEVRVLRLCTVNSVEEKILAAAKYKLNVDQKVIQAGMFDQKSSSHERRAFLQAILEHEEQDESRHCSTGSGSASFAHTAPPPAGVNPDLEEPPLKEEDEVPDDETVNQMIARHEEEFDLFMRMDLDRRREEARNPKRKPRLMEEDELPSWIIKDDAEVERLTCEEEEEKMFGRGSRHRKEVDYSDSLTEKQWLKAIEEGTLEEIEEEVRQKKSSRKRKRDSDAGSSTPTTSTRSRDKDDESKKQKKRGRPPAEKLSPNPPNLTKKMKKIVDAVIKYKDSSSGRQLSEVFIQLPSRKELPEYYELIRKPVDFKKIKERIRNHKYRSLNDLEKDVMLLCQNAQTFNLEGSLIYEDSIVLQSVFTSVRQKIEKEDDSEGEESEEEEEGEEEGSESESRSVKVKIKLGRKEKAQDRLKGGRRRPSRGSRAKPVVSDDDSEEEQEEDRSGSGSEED

Row | Compound | IC50 (BRG-1; [1]) | IC50 (BRM; [1]) | Ratio* (BRM; ratio of BRG1 IC50 to BRM IC50) | IC50 (BRG-1; ADP-Glo ATPase assay) | IC50 (BRM; ADP-Glo ATPase assay) | Ratio* (BRG1 IC50 (μM) divided by BRM IC50 (μM)) (BRM) | Ratio* (BRM; ratio BRG1 IC50 / BRM IC50)
1 | C[C@@H]1CN(c2cccc(-c3ccc4cnc(CNC(=O)c5ccc6c(c5)S(=O)(=O)[C@@H](C)C6)cc4n3)n2)C[C@H](C)O1 [Compound 500] | 3520 nM | 208 nM | 16.91 |  |  |  | 
2 | Cc1cnc2c(c1)OCCN2c1ccc2cnc(CNC(=O)c3cc(F)c4c(c3)S(=O)(=O)[C@@H](C)COC4)cc2n1 [Compound 554] | 83.1 nM | 8.6 nM | 9.64 |  |  |  | 
3 | CS(=O)(=O)c1cc(C(=O)NCc2cc3nc(-c4cccc(N5CC[C@H]6COC[C@H]6C5)n4)ccc3cn2)ccc1C(F)F [Compound 95] |  |  |  | 610 nM | 40.7 nM | 15.00 | 
4 | O=C(NCc1cc2nc(N3CCOc4cc(N5CCC(F)(F)C5)cnc43)ccc2cn1)c1ccc2c(c1)S(=O)(=O)CCOC2 [Compound 758] |  |  |  | 507 nM | 35.6 nM |  | 14.23
5 | C[C@H]1C[C@H]1c1ccc2c(n1)N(c1ccc3cnc(CNC(=O)c4ccc5c(c4)S(=O)(=O)CCOC5)cc3n1)CCO2 [Compound 831] |  |  |  | 1160 nM | 35.2 nM |  | 33.09
6 | Cc1ccc2c(n1)N(c1ccc3cnc(CNC(=O)c4ccc5c(c4)S(=O)(=O)[C@@H](C)COC5)cc3c1)CCO2 [Compound 680] | 969 nM | 32.7 nM | 29.69 |  |  |  | 
7 | C[C@H]1CN(c2cccc(-c3ccc4cnc(CNC(=O)c5ccc(Cl)c(S(C)(=O)=O)c5)cc4n3)n2)CC[C@@H]1O [Compound 575] | 82.3 nM | 5.4 nM | 15.34 |  |  |  | 
8 | O=C(NCc1cc2nc(-c3cccc([C@@H]4CC4(F)F)c3)ccc2cn1)c1ccc2c(c1)S(=O)(=O)CCOC2 [Compound 251] |  |  |  | 1700 nM | 176 nM | 9.69 | 
9 | O=C(NCc1cc2nc(N3CCOc4cc(Cl)cnc43)ccc2cn1)c1cc(F)c2c(c1)S(=O)(=O)CCOC2 [Compound 691] | 159 nM | 9.5 nM | 16.64 |  |  |  | 
10 | C[C@@H]1CN(c2cccc(-c3ccc4cnc(CNC(=O)c5ccc6c(c5)S(=O)(=O)CCOC6)cc4n3)n2)C[C@H](C)O1 [Compound 282] |  |  |  | 19.3 nM | 4.2 nM | 4.64 | 
11 | COc1cc(Cl)ccc1-c1ccc2cnc(CNC(=O)c3ccc4c(c3)S(=O)(=O)[C@@H](C)COC4)cc2n1 [Compound 386] | 140 nM | 9.2 nM | 15.24 |  |  |  | 
12 | CO[C@H](C)Cn1ccc2c(-c3ccc4cnc(CNC(=O)c5ccc6c(c5)S(=O)(=O)CCOC6)cc4n3)ccnc21 [Compound 448] | 3670 nM | 263 nM | 13.96 |  |  |  | 
13 | O=C(NCc1cc2nc(N3CCc4cc(C(F)F)cnc43)ccc2cn1)c1ccc2c(c1)S(=O)(=O)CCOC2 [Compound 720] |  |  |  | 231 nM | 43.6 nM |  | 5.30
14 | C[C@@H]1CN(c2cccc(-c3ccc4cnc(CNC(=O)c5cnc6c(c5)S(=O)(=O)[C@@H](C)CCC6)cc4n3)n2)C[C@H](C)O1 [Compound 509] | 26.9 nM | 6.4 nM | 4.21 |  |  |  | 
15 | COC[C@@H]1CCc2ccc(-c3ccc4cnc(CNC(=O)c5ccc6c(c5)S(=O)(=O)CCOC6)cc4n3)nc2N1C [Compound 476] | 36.6 nM | 3.7 nM | 9.82 |  |  |  | 
16 | O=C(NCc1cc2nc(-c3cccc(F)n3)ccc2cn1)c1ccc2c(c1)S(=O)(=O)CCOC2 [Compound 243] |  |  |  | 4660 nM | 528 nM | 8.82 | 
17 | O=C(NCc1cc2nc(N3CCOc4c3ncc(C3CC3)c4F)ccc2cn1)c1ccc2c(c1)S(=O)(=O)CCOC2 [Compound 827] |  |  |  | 153 nM | 13.1 nM |  | 11.63
18 | C[C@@H]1CN(c2cccc(-c3ccc4cnc(CNC(=O)c5cc(F)c6c(c5)S(=O)(=O)CCO[C@H]6C)cc4n3)n2)C[C@H](C)O1 [Compound 522] | 62.1 nM | 13.8 nM | 4.48 |  |  |  | 

Row | Compound | IC50 (BRG-1; [1]) | IC50 (BRM; [1]) | Ratio* (BRM; ratio of BRG1 IC50 to BRM IC50) | IC50 (BRG-1; ADP-Glo ATPase assay) | IC50 (BRM; ADP-Glo ATPase assay) | Ratio* (BRG1 IC50 (μM) divided by BRM IC50 (μM)) (BRM) | Ratio* (BRM; ratio BRG1 IC50 / BRM IC50)
19 | COc1ccc2c(c1)N(c1ccc3cnc(CNC(=O)c4ccc5c(c4)S(=O)(=O)CCOC5)cc3n1)CCC2 [Compound 539] | 153 nM | 12.2 nM | 12.53 |  |  |  | 
20 | CN1CCOc2c(-c3ccc4cnc(CNC(=O)c5ccc6c(c5)S(=O)(=O)CCOC6)cc4n3)ccnc21 [Compound 58] |  |  |  | 546 nM | 96.9 nM | 5.63 | 
21 | O=C(NCc1cc2nc(-c3cccc(OC4CC(F)(F)C4)n3)ccc2cn1)c1ccc2c(c1)S(=O)(=O)CCOC2 [Compound 74] |  |  |  | 1180 nM | 122 nM | 9.63 | 
22 | COCC1CN(c2cccc(-c3ccc4cnc(CNC(=O)c5ccc6c(c5)S(=O)(=O)CCOC6)cc4n3)n2)C1 [Compound 221] |  |  |  | 794 nM | 82.3 nM | 9.65 | 
23 | CS(=O)(=O)c1cc(C(=O)NCc2cc3nc(-c4cncc(C5CC5)n4)ccc3cn2)ccc1CC(F)F [Compound 164] |  |  |  | 1410 nM | 110 nM | 12.80 | 
24 | COCCN(C)c1cccc(-c2ccc3cnc(CNC(=O)c4ccc(C(F)F)c(S(C)(=O)=O)c4)cc3n2)n1 [Compound 110] |  |  |  | 407 nM | 20.9 nM | 19.51 | 
25 | Cc1cc2ccc(-c3ccc4cnc(CNC(=O)c5ccc6c(c5)S(=O)(=O)CCOC6)cc4n3)nc2n1C [Compound 85] |  |  |  | 129 nM | 15.7 nM | 8.19 | 
26 | C[C@@H]1CN(c2cccc(-c3ccc4cnc(CNC(=O)c5ccc6c(c5)S(=O)(=O)[C@@H](C)COC6)cc4n3)n2)C[C@H](C)O1 [Compound 155] |  |  |  | 25.2 nM | 4.5 nM | 5.59 | 
27 | O=C(NCc1cc2nc(N3CCCc4cnccc43)ccc2cn1)c1ccc2c(c1)S(=O)(=O)CCOC2 [Compound 90] |  |  |  | 2140 nM | 166 nM | 12.89 | 
28 | CCS(=O)(=O)c1cc(C(=O)NCc2cc3nc(-c4cncc(C5CC5)n4)ccc3cn2)ccc1C [Compound 275] |  |  |  | 1320 nM | 84.9 nM | 15.55 | 
29 | O=C(NCc1cc2nc(N3CCCc4cc(F)c(F)cc43)ccc2cn1)c1ccc2c(c1)S(=O)(=O)CCOC2 [Compound 625] | 515 nM | 36.7 nM | 14.05 |  |  |  | 
30 | C[C@@H]1CCN(C)c2nc(-c3ccc4cnc(CNC(=O)c5ccc6c(c5)S(=O)(=O)CCOC6)cc4n3)ccc21 [Compound 695] | 420 nM | 43.3 nM | 9.72 |  |  |  | 
31 | C[C@@H]1CN(c2cccc(-c3ccc4cnc(CNC(=O)c5ccc6c(c5)S(=O)(=O)CC[C@@H](C5CC5)O6)cc4n3)n2)C[C@H](C)O1 [Compound 433] | 4500 nM | 331 nM | 13.59 |  |  |  | 
32 | COc1c(C)cnc2c1CCCN2c1ccc2cnc(CNC(=O)c3ccc4c(c3)S(=O)(=O)CCOC4)cc2n1 [Compound 629] | 85 nM | 10 nM | 8.49 |  |  |  | 
33 | O=C(NCc1cc2nc(N3CCc4ccc(Cl)cc43)ccc2cn1)c1ccc2c(c1)S(=O)(=O)CCOC2 [Compound 654] | 2570 nM | 104 nM | 24.78 |  |  |  | 
34 | COCc1ccc(C(=O)NCc2cc3nc(-c4cccc(N5C[C@@H](C)O[C@@H](C)C5)n4)ccc3cn2)cc1S(C)(=O)=O [Compound 192] |  |  |  | 32.7 nM | 5.1 nM | 6.45 | 
35 | O=C(NCc1cc2nc(-c3cncc(C4CC4)n3)ccc2cn1)c1cnc2c(c1)S(=O)(=O)CCCC2 [Compound 230] |  |  |  | 399 nM | 41.6 nM | 9.60 | 
36 | COC[C@H]1C[C@H]1c1cccc(-c2ccc3cnc(CNC(=O)c4ccc5c(c4)S(=O)(=O)CCOC5)cc3n2)n1 [Compound 346] | 2770 nM | 368 nM | 7.55 |  |  |  | 
